In PMC10633902, “Investigating the antimicrobial activity, cytotoxicity, and action mechanism of acylated and amidated derivatives of AurH1 antifungal peptide” (BMC Microbiology, 2023):
Like-named read-outs stand apart in the source and are kept apart here. No end group written: not given here.

Key:
C. albicans [1] = test: Killing kinetic assay (time of killing); type: cell-based, Candida albicans; conditions: 1X MIC concentration
[2] = system: Candida albicans (ATCC 10,231); set-up: method as in our previous study [6]; conditions: C. albicans; ref our previous study [6]; cited from earlier work
[3] = system: Aspergillus flavus (ATCC 24,109); set-up: method as in our previous study [6]; conditions: A. flavus; ref our previous study [6]; cited from earlier work
[4] = system: Candida krusei (ATCC 28,870); set-up: method as in our previous study [6]; conditions: C. krusei; ref our previous study [6]; cited from earlier work
[5] = system: Staphylococcus aureus (ATCC 25,923); set-up: method as in our previous study [6]; conditions: S. aureus; ref our previous study [6]; cited from earlier work
human red blood cells = type: cell-based; conditions: 1 h
Description: A hemolytic assay was performed to investigate the effects of peptides on human red blood cells. First, 5 ml of fresh human blood was taken from a volunteer. After that, 20% (v/v) suspension of human erythrocytes was prepared and diluted in PBS (1:20). Next, 100 µL of this blood suspension was added in triplicate to 100 µL of a 2-fold serial dilution series of the peptide in a 96‐well plate. 1% Triton-X 100 was used as a positive control to lyse 100% of RBCs, and sterile 0.9% NaCl solution was used as a negative control. Then the plates were incubated at 37 °C for 1 h and centrifuged at 3500 rpm for 10 min. Next, 100 µL of the supernatant was transferred to a new 96-well plate to measure the absorbance at 414 nm using a microplate reader (STAT FAX 2100, BioTek, Winooski, USA). Finally, the percentage of hemolysis was calculated as follows: […]

C. albicans [6] = test: Ergosterol binding assay (MIC in presence and absence of ergosterol); type: cell-based, Candida albicans
Description: An ergosterol binding assay was performed to measure the binding potency of peptides to fungal membrane sterols. For this purpose, the ergosterol was dissolved in DMSO and Tween-20, it was heated to increase the solubility of the formed emulsion and diluted in an SDB medium at a concentration of […] and incubated at 37 °C for 1 h. After that, MIC of the AurH1, Ac-AurH1, and AurH1-NH2 peptides was measured by the micro-dilution method in the presence and absence of ergosterol in different concentrations ([…]) against C. albicans.

C. albicans [7] = test: Effect of salts and human serum on antimicrobial activity (MIC); type: cell-based, Candida albicans
Description: To evaluate the effect of salts and human serum on the antimicrobial activity of the AurH1-NH2 and AurH1 peptides, their antimicrobial activity (MICs values) against C. albicans under different conditions containing salt and human serum was determined. Therefore, mid-logarithmic phase yeasts diluted to 5 × 10^5 CFU/ml in SDB were added to related media containing different concentrations of human serum (10%, 20%, and 30%) and salts (150 mM NaCl and 1mM MgCl2), and incubated at 37 °C for 24 h.

[8] = system: Candida glabrata (ATCC 90,030); set-up: method as in our previous study [6]; conditions: C. glabrata; ref our previous study [6]; cited from earlier work
[9] = system: Aspergillus niger (ATCC 9142); set-up: method as in our previous study [6]; conditions: A. niger; ref our previous study [6]; cited from earlier work
C. albicans [10] = system: C. albicans; set-up: method as in PMID 31264322; conditions: cited from earlier work
[11] = system: Escherichia coli (ATCC 25,922); set-up: method as in our previous study [6]; conditions: E. coli; ref our previous study [6]; cited from earlier work

Substance: WFKIIKK [AurH1, WFKIIKK]
- time to kill all C. albicans (maximum fungicidal effect) (C. albicans [1]): 24 h
- MBC (MFC) [2]: 125 µg/mL
- MIC [2]: 15.625 µg/mL
- MIC [3]: > 1000 µg/mL
- MBC (MFC) [4]: 250 µg/mL
- MIC [4]: 31.25 µg/mL
- MIC [5]: > 1000 µg/mL
- HC50 (concentration that lyses 50% of red blood cells) (human red blood cells): 13,484 µg/ml
- MIC (C. albicans [6]; after treatment with Ergosterol (Erg)): 15.6 µg/mL
- MIC (C. albicans [6]; before treatment with Ergosterol (substance alone)): 15.6 µg/mL
- MIC (C. albicans [7]; SDB): 15.6 µg/mL
- MIC (C. albicans [7]; SDB + 10% serum (human)): 15.6 µg/mL
- MIC (C. albicans [7]; SDB + 20% serum (human)): 62.5 µg/mL
- MIC (C. albicans [7]; SDB + 30% serum (human)): 125 µg/mL
- MIC (C. albicans [7]; SDB + MgCl2 (1 mM)): 15.6 µg/mL
- MIC (C. albicans [7]; SDB + NaCl (150 mM)): 15.6 µg/mL
- MBC (MFC) [8]: 500 µg/mL
- MIC [8]: 125 µg/mL
- MBC (MFC) [9]: 500 µg/mL
- MIC [9]: 125 µg/mL
- combinatorial effect (in words) (C. albicans [10]; in combination with amphotericin B): synergistic effects
- combinatorial effect (in words) (C. albicans [10]; in combination with fluconazole): synergistic effects
- MIC [11]: > 1000 µg/mL
